Measured values as given in patent US12083092B2, “Antiviral 1,3-di-oxo-indene compounds” (Novartis AG, priority 2020, dated 2024).

Columns and labels:
[1] = Cytotoxicity in mock-infected cells (MTT/MTS); type: cell-based; conditions: human, read-out: CYTOTOX (EC50 μM)
Experimental: In the assay, HeLa (human cervical cancer cells), MRC-5 (human fetal lung fibroblast cells), and RD cells (derived from human rhabdomyosarcoma) were employed. For comparison, ribavirin (Riv), Pleconaril (pleco), and BTA-798 (BTA) were used as controls. Reagents were dissolved at a concentration of 10-40 mg/ml in 100% dimethyl sulfoxide (DMSO). Water-soluble reagents were dissolved in PBS (−) solution and stored at −20° C. On the day of the experiment, they were used in 3 fold to 5 fold concentrations in such a manner that the concentration of dimethyl sulfoxide in each well was between 0.5% and 1%.
For HeLa cells, the drugs were measured for EC50 (50% maximal effective concentration), which is the concentration of a drug inducing a response halfway between the baseline and maximum, using an MTT assay. With regard to RD and MRC-5 cells, CPE was determined using FDA (Fluorescein diacetate) or MTT. In order to determine the effect of drug toxicity on efficacy results, at the time of inoculation with the virus, mock-infection was also included. A virus-free medium was added to a cell culture, which was then subjected to the same treatment as the virus-infected cells inoculated with the virus. That is, the medium was removed after one hour of incubation, and dilutions of drugs in the medium were added once more. Following incubation for 2-3 days, the cells were observed under a microscope and the drugs were determined for CC50 (50% cytotoxic concentration) at which 50% of the cells were killed, using an MTT assay in which counts of viable cells in mock-infected wells containing drugs were compared to those of viable cells in control wells containing no drugs. In an FDA hydrolysis assay, FDA was added to each well after removal of the medium, and incubated for 20-30 min before fluorescence intensity was measured using a spectrofluorometer to determine CPE in the same manner as in MTT.
That is, the survival rate (% survival) of mock-infected cells for cytotoxicity measurement was calculated using the Mathematical Formula 1 below: Cell Drug=Survival by [A (Drug)−A (Background solution)/A (Cell control)−(Background×100% Solution)]
While 100% cell survival means no cytotoxicity of the drug, the highest cytotoxicity is reflected by 0% cell survival. The 50% cytotoxic concentration was defined as the concentration required to reduce the cell number by 50%. This concentration of the drug is represented as CC50. Higher values mean lower cytotoxicity.
The % CPE value for measuring cytotoxicity of a drug was calculated by Mathematical Formula 4 below: % CPE=100×[OD (CC)−OD (Virus+Compound)/OD (CC)−OD (Blank)] In Mathematical Formulae 3 and 4 above, • OD (CC) represents the OD of the background cell culture that is neither induced by a virus nor treated by chemical, • OD (VC) represents the OD of the control cell culture that is induced by a virus but not treated by chemical, • OD (Virus+Compound) represents the OD of the cell culture infected by a virus that has been treated with a concentrated compound, • OD (Compound) represents the OD of the cell culture that has been treated with a concentrated compound only, and OD (Blank) represents the OD of the well to which only the cell culture has been added.
The effective concentration (EC50) represents the concentration of a drug at which 50% of cells are allowed to survive by CPE of an induced virus, and the cytotoxicity concentration (CC50) represents the concentration of a drug at which a compound has killed 50% of cells, and they were calculated by the logarithmic interpolation.

[2] = tested on: coxsackievirus B4 (Cox B4); experiment: CPE inhibition assay, coxsackievirus B4; type: cell-based; conditions: Enterovirus B
HRV A16 = experiment: CPE inhibition assay, HRV A16; type: cell-based; conditions: Human rhinovirus sp., read-out: A16_CPE (EC50 μM)
HRV B14 = experiment: CPE inhibition assay, HRV B14; type: cell-based; conditions: Human rhinovirus sp.
[3] = cited from earlier work
[4] = in vivo, cited from earlier work
C15_C3 REP = conditions: human, C15 C3 REP (cell-based assay)
poliovirus 1 (PV1) = experiment: microbe, parasite or virus in culture; type: cell-based; conditions: Enterovirus C, read-out: PV1 (EC50 μM)
[5] = tested on: 48 rhinovirus types and coxsackievirus A21. B3, enterovirus 70 and echovirus 11; conditions: coxsackievirus A21, B3, enterovirus 70, echovirus 11; cited from earlier work
[6] = in vivo; cited from earlier work
[7] = in vivo; cited from earlier work; remark: listed apart in the source

Structure (SMILES) | CC50 [1] [µM] | EC50 [2] [µM] | EC50 (HRV A16) [µM] | EC50 (HRV B14) [µM] | CC50 (C15_C3 REP) [nM] | EC50 (poliovirus 1 (PV1)) [µM] | also measured
CC(=O)NC12C(=O)c3c(N)cccc3C1(O)Oc1cc(C)ccc12 (racemic) [Example 16, N-(1-amino-4b-hydroxy-7-methyl-10-oxo-4b,10-dihydro-9bH-indeno[1,2-b]benzofuran-9b-yl)acetamide] | ≥ 50 | 0.00374 | 50 | 0.076 |  |  | 
CC(C)S(=O)(=O)n1c(N)nc2ccc(/C(=N/O)c3ccccc3)cc21 [Enviroxime] |  |  |  |  |  |  | therapeutic effects in clinical studies ([3]; clinical studies): insignificant or few therapeutic effects; pharmacokinetics in clinical studies ([3]; in vivo): bad pharmacokinetics; side effects in clinical studies ([3]; in vivo): unwanted side effects
Cc1cc(CCCOc2c(C)cc(-c3noc(C(F)(F)F)n3)cc2C)on1 [Pleconaril] |  |  |  |  |  |  | oral bioavailability ([4]; po): very good oral bioavailability
CC(=O)N[C@]12C(=O)c3c(N)cccc3[C@@]1(O)Oc1cc(Br)ccc12 [Example 6, N-((4bR,9bR)-1-amino-7-bromo-4b-hydroxy-10-oxo-4b,10-dihydro-9bH-indeno[1,2-b]benzofuran-9b-yl)acetamide] | ≥ 50 | 0.00098 | 43.3 | 0.049 | 50000 |  | 
CC(=O)N[C@]12C(=O)c3c(N)cccc3[C@@]1(O)Oc1cc(Cl)ccc12 (single isomer, unassigned) [Example 14] | ≥ 50 | 0.00182 |  |  |  |  | 
CC(=O)N[C@]12C(=O)c3c(N)cccc3[C@@]1(O)Oc1cc(C(C)C)ccc12 (single isomer, unassigned) [Example 1] | ≥ 50 | 0.00061 | 1.89 | 0.016 | 35100 | 0.015 | 
CC(=O)N[C@@]12C(=O)c3c(N)cccc3[C@]1(O)Oc1cc(OC(F)(F)F)ccc12 (single isomer, unassigned) [Example 12] | ≥ 50 | 0.188 | 1.89 | 0.016 |  | 0.015 | 
COc1ccc2c(c1)O[C@]1(O)c3cccc(N)c3C(=O)[C@]21NC(C)=O (single isomer, unassigned) [Example 23] | ≥ 50 | 0.00293 |  |  |  |  | 
CC(=O)N[C@]12C(=O)c3c(N)cccc3[C@@]1(O)Oc1cc(C3CC3)ccc12 (single isomer, unassigned) [Example 8] | ≥ 50 | 0.00093 | 7.85 | 0.025 | 50000 | 0.028 | 
CCOC(=O)/C=C/[C@H](C[C@@H]1CCNC1=O)NC(=O)[C@@H](CC(=O)[C@@H](NC(=O)c1cc(C)on1)C(C)C)Cc1ccc(F)cc1 [AG 7088] |  |  |  |  |  |  | effect in the cell culture [5]: nanomolar concentration range
CC(=O)N[C@]12C(=O)c3c(N)cccc3[C@@]1(O)Oc1cc(C(F)(F)F)ccc12 (single isomer, unassigned) [Example 4] | ≥ 50 | 0.00059 |  |  |  | 0.041 | 
CC(=O)NC12C(=O)c3c(N)cccc3C1(O)Oc1cc(OC(F)(F)F)ccc12 (racemic) [Example 10, N-(1-amino-4b-hydroxy-10-oxo-7-(trifluoromethoxy)-4b,10-dihydro-9bH-indeno[1,2-b]benzofuran-9b-yl)acetamide] | ≥ 50 | 0.00303 | 39.8 | 0.056 | 50000 | 0.335 | 
CC(=O)N(C)C12C(=O)c3c(N)cccc3C1(O)Oc1cc(C(F)(F)F)ccc12 (stereo not shown) [Example 21, N-(1-amino-4b-hydroxy-10-oxo-7-(trifluoromethyl)-4b,10-dihydro-9bH-indeno[1,2-b]benzofuran-9b-yl)-N-methylacetamide] | ≥ 50 | 0.0032 |  |  | 25000 |  | 
CC(=O)N[C@]12C(=O)c3c(N)cccc3[C@@]1(O)Oc1cc(C)ccc12 (single isomer, unassigned) [Example 17] | ≥ 50 | 0.00174 |  |  |  | 0.11 | 
CC(=O)NC12C(=O)c3c(N)cccc3C1(O)Oc1cc(C(F)(F)F)ccc12 (racemic) [Example 3, N-(1-amino-4b-hydroxy-10-oxo-7-(trifluoromethyl)-4b,10-dihydro-9bH-indeno[1,2-b]benzofuran-9b-yl)acetamide] | ≥ 50 | 0.00201 | 50 | 0.019 | 21400 |  | 
CCC(=O)C(CCCCCCOc1ccc(OC)cc1Cl)C(=O)CC [arildone] |  |  |  |  |  |  | bioavailability [4]: low bioavailability
Cc1cc(CCCCCOc2c(Cl)cc(C3=NCCO3)cc2Cl)on1 [WIN 54954] |  |  |  |  |  |  | side effects [6]: skin rash; metabolization and excretion [7]: rapid metabolization and excretion
CC(=O)N[C@]12C(=O)c3c(N)cccc3[C@@]1(O)Oc1ccc(C)cc12 (single isomer, unassigned) [Example 20] | ≥ 50 | 0.00443 |  |  |  | 2.17 | 
CC(=O)NC12C(=O)c3c(N)cccc3C1(O)Oc1cc(Cl)ccc12 (racemic) [Example 13, N-(1-amino-7-chloro-4b-hydroxy-10-oxo-4b,10-dihydro-9bH-indeno[1,2-b]benzofuran-9b-yl)acetamide] | ≥ 50 | 0.00267 |  |  |  | 0.295 | 
CC(=O)NC12C(=O)c3c(N)cccc3C1(O)Oc1cc(C3CC3)ccc12 (racemic) [Example 7, N-(1-amino-7-cyclopropyl-4b-hydroxy-10-oxo-4b,10-dihydro-9bH-indeno[1,2-b]benzofuran-9b-yl)acetamide] | ≥ 50 | 0.00168 | 14.7 | 0.016 | 50000 |  | 
Cc1cc(CCCCCCCOc2ccc(C3=NCCO3)cc2)on1 [disoxaril] |  |  |  |  |  |  | metabolization and excretion [7]: rapid metabolization and excretion; bioavailability [4]: low bioavailability
CC(=O)N[C@@]12C(=O)c3c(N)cccc3[C@]1(O)Oc1cc(Cl)ccc12 (single isomer, unassigned) [Example 15] | ≥ 50 | 0.29 |  |  | 25000 |  | 
CC(=O)N[C@@]12C(=O)c3c(N)cccc3[C@]1(O)Oc1cc(C3CC3)ccc12 (single isomer, unassigned) [Example 9] | ≥ 50 | 0.0862 | 50 | 3.21 | 50000 |  | 
CC(=O)N[C@]12C(=O)c3c(N)cccc3[C@@]1(O)Oc1cc(OC(F)(F)F)ccc12 (single isomer, unassigned) [Example 11] | ≥ 50 | 0.0011 |  |  |  |  | 
CC(=O)N[C@@]12C(=O)c3c(N)cccc3[C@]1(O)Oc1cc(C)ccc12 (single isomer, unassigned) [Example 18] | ≥ 50 | 0.383 |  |  | 25000 |  | 
CC(=O)N[C@@]12C(=O)c3c(N)cccc3[C@]1(O)Oc1cc(C(F)(F)F)ccc12 (single isomer, unassigned) [Example 5] | ≥ 50 | 0.0442 |  |  | 25000 | 9.22 | 
CC(=O)NC12C(=O)c3c(N)cccc3C1(O)Oc1ccc(C)cc12 (racemic) [Example 19, N-(1-amino-4b-hydroxy-8-methyl-10-oxo-4b,10-dihydro-9bH-indeno[1,2-b]benzofuran-9b-yl)acetamide] | ≥ 50 | 0.00871 | 50 | 0.666 | 25000 | 3.24 | 
